# Key:
# [1] = biological target: T1, Human Vanilloid Receptor 1 (Homo sapiens, UniProt Q8NER1); assay: Human VR1 functional assay using FLIPR, Protocol 1; format: cell-based; conditions: for inhibition at 9 µM: HEK293, 9 uM, HEK 293 cells transfected with hVR1, read-out: h % I (9 uM); for IC50: decreased capsaicin (EC80)-induced calcium response, HEK 293 hVR1, read-out: h IC50
# T1 construct: expressed in transfected cells; host or cells: HEK 293
# Protocol: The functional activity of the test compounds was determined by measuring changes in intracellular calcium concentration using FLIPR™ Calcium-3 Assay Kit and FLIPR™ technology.
# HEK 293 cells transfected with Human Vanilloid Receptor 1 were maintained at 37° C. and 5% CO2 in: Dulbecco's Modification of Eagle's Medium (high glucose, L-glutamine, pyridoxine HCl, No sodium pyruvate), 10% FBS, 1× Penicillin-Streptomycin-Amphotericin B, 200 ug/mL zeocin. Approximately 24 hours prior to assay, 30,000 cells/well were plated onto a 384-well black clear bottom poly-D-lysine-coated assay plate with a well volume of 25 µL using Titertek Multidrop.
# On the day of the assay, the medium was dumped and 50 μL 1× dye were loaded using Multidrop. Plates were incubated with dye at 37° C. for 30 minutes followed by 30 minutes incubation at room temperature. Then the plates were assayed by FLIPR™ with 2 additions: 12.5 μL test compound with 5 minutes data acquisition followed by 12.5 μL capsaicin at the EC80 concentration.
# The EC50 values of test compounds were calculated based on a test compound-induced calcium response at the 5-minute time point. The IC50 values of compounds were calculated based on a decreased capsaicin-induced calcium response in the presence of test compound.
# hVR1 receptors = biological target: T2, hVR1 receptors (Homo sapiens, UniProt Q8NER1); assay: Human VR1 binding assay ([3H]RTX); conditions: membranes of HEK293 cells transfected with human VR1; for Ki: [3H]RTX binding; for h Binding % I (1 uM): inhibition of [3H]RTX binding
# T2 construct: expressed in transfected cells; host or cells: HEK293
# Protocol: Compounds of the present invention were tested for their ability to inhibit the binding of [^3H] RTX to hVR1 receptors in a [^3H] RTX binding assay as previously described (Zhang, Sui-Po. Improved ligand binding assays for vanilloid receptors. PCT Int. Appl. (2002), WO 0233411 A1 20020425 AN 2002:315209, and Grant, Elfrida R., Dubin, Adrienne E., Zhang, Sui-Po, Zivin, Robert A., Zhong, Zhong Simultaneous intracellular calcium and sodium flux imaging in human vanilloid receptor 1 (VR1)-transfected human embryonic kidney cells: a method to resolve ionic dependence of VR1-mediated cell death. J. Pharmacol. Exp. Ther., 2002, 300(1), 9-17.)
# HEK293 cells were transfected with human VR1 vanilloid receptors and washed with Hank's balanced Salt Solution, dissociated with cell dissociation buffer (Sigma), and then centrifuged at 1000×g for 5 min. Cell pellets were homogenized in cold 20 mM HEPES buffer, pH 7.4, containing 5.8 mM NaCl, 320 mM sucrose, 2 mM MgCl2, 0.75 CaCl2 and 5 mM KCl and centrifuged at 1000×g for 15 min. The resultant supernate was then centrifuged at 40000×g for 15 min. The pelleted membranes were stored in a freezer at −80° C.
# Approximately 120 μg protein/ml from membranes were incubated with indicated concentrations of [^3H]RTX in 0.5 ml of the HEPES buffer (pH 7.4) containing 0.25 mg/mL fatty acid-free bovine serum albumin at 37° C. for 60 min. The reaction mixture was then cooled to 4° C., added 0.1 mg α1-acid glycoprotein to each sample and incubated at 4° C. for 15 min. The samples were centrifuged at 18500×g for 15 min. The tip of the microcentrifuge tube containing the pellet was cut off. Bound radioactivity was quantified by scintillation counting. Non-specific binding was tested in the presence of 200 nM unlabeled RTX.
# Data were calculated according to the equation: % inhibition=(total binding−binding)*100/(total binding−non specific binding). Ki values were calculated using a Prism program.
# [2] = inhibition of capsaicin (EC80)-induced calcium response
# T2 sequence (Q8NER1 whole entry): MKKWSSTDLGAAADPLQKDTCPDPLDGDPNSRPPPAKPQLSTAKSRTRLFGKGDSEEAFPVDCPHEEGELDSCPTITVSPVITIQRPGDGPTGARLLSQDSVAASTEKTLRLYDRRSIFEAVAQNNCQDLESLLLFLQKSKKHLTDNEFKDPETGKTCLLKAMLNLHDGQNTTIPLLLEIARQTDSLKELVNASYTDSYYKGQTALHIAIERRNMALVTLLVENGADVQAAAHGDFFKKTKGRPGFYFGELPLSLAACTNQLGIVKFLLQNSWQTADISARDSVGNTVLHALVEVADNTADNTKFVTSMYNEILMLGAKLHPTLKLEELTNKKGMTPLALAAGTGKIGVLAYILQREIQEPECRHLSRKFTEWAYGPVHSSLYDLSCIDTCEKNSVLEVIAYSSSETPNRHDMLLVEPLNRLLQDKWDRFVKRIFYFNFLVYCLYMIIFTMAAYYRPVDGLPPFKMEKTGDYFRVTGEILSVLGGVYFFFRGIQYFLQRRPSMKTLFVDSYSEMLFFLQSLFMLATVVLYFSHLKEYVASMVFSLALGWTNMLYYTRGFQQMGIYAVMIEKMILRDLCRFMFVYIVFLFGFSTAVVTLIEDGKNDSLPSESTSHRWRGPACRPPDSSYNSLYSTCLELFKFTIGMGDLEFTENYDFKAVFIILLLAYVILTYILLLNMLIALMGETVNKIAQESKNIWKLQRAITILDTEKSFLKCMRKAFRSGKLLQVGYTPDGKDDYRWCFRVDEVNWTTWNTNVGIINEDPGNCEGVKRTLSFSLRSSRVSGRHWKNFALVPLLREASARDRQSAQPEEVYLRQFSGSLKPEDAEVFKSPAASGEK
# T1 sequence (Q8NER1 whole entry): as above
Compound,"inhibition at 9 µM [1, 2]",IC50 [1],Ki (hVR1 receptors),h Binding % I (1 uM) (hVR1 receptors),"h % I (9 uM) ([1]; 9 uM, inhibition of capsaicin (EC80)-induced calcium response, HEK 293 cells transfected with hVR1)"
"CCc1ccccc1N1CCC(C(=O)Nc2ccc3c(c2)NC(=O)CO3)CC1 [Example 142, 1-(2-Ethyl-phenyl)-piperidine-4-carboxylic acid (3-oxo-3,4-dihydro-2H-benzo[1,4]oxazin-6-yl)-amide]",96.3%,150 nM,125 nM,,
"CC(=O)N1CCc2ccc(NC(=O)C3CCN(c4cccc(C(F)(F)F)c4)CC3)cc21 [Example 16, 1-(3-Trifluoromethyl-phenyl)-piperidine-4-carboxylic acid (1-acetyl-2,3-dihydro-1H-indol-6-yl)-amide]",83%,800 nM,,15.0%,
"CC(=O)c1cc2c(cc1NC(=O)C1CCN(c3cccc(C(F)(F)F)c3)CC1)OCO2 [Example 33, 1-(3-Trifluoromethyl-phenyl)-piperidine-4-carboxylic acid (6-acetyl-benzo[1,3]dioxol-5-yl)-amide]",12.6%,,,12.8%,
"CC(C)c1ccccc1N1CCC(C(=O)Nc2ccc3c(c2)NC(=O)CO3)CC1 [Example 143, 1-(2-Isopropyl-phenyl)-piperidine-4-carboxylic acid (3-oxo-3,4-dihydro-2H-benzo[1,4]oxazin-6-yl)-amide]",101%,180 nM,78 nM,,
"O=C(Nc1cccc2[nH]ccc12)C1CCN(c2cccc(C(F)(F)F)c2)CC1 [Example 21, 1-(3-Trifluoromethyl-phenyl)-piperidine-4-carboxylic acid (1H-indol-4-yl)-amide]",,160 nM,134 nM,86.9%,102.0%
"O=C(Nc1cnc2ccccc2c1)C1CCN(c2ccccc2Br)CC1 [Example 53, 1-(2-Bromo-phenyl)-piperidine-4-carboxylic acid quinolin-3-ylamide]",104%,160 nM,,47.3%,
"Cc1ccc(N2CCC(C(=O)Nc3cnc4ccccc4c3)CC2)cc1C [Example 6, 1-(3,4-Dimethyl-phenyl)-piperidine-4-carboxylic acid quinolin-3-ylamide]",92.2%,350 nM,215 nM,66.5%,
"O=C(Nc1cccc2[nH]ccc12)C1CCN(c2cccc(C(F)(F)F)c2)CC1 [Example 8, 1-(3-Trifluoromethyl-phenyl)-piperidine-4-carboxylic acid (1H-indol-4-yl)-amide]",101%,230 nM,134 nM,87.0%,
"CC(C)(C)c1ccc(N2CCC(C(=O)Nc3ccc4c(c3)NC(=O)CO4)CC2)cc1 [Example 146, 1-(4-tert-Butyl-phenyl)-piperidine-4-carboxylic acid (3-oxo-3,4-dihydro-2H-benzo[1,4]oxazin-6-yl)-amide]",112%,90 nM,132 nM,,
"O=C(Nc1ccc2ncsc2c1)C1CCN(c2cccc(C(F)(F)F)c2)CC1 [Example 13, 1-(3-Trifluoromethyl-phenyl)-piperidine-4-carboxylic acid benzothiazol-6-ylamide]",88%,480 nM,,47.7%,
"O=C(Nc1cnc2ccccc2c1)C1CCN(c2cccc(-c3ccccc3)c2)CC1 [Example 3, 1-Biphenyl-3-yl-piperidine-4-carboxylic acid quinolin-3-ylamide]",44%,15500 nM,,,

# Next, values leading:
"inhibition at 9 µM [1, 2]",IC50 [1],Ki (hVR1 receptors),h Binding % I (1 uM) (hVR1 receptors),"h % I (9 uM) ([1]; 9 uM, inhibition of capsaicin (EC80)-induced calcium response, HEK 293 cells transfected with hVR1)",Compound
90.7%,220 nM,93 nM,,,"O=C1COc2ccc(NC(=O)C3CCN(c4ccccc4Cl)CC3)cc2N1 [Example 152, 1-(2-Chloro-phenyl)-piperidine-4-carboxylic acid (3-oxo-3,4-dihydro-2H-benzo[1,4]oxazin-6-yl)-amide]"
100%,150 nM,61 nM,,,"Cc1ccccc1N1CCC(C(=O)Nc2ccc3c(c2)NC(=O)CO3)CC1 [Example 141, 1-o-Tolyl-piperidine-4-carboxylic acid (3-oxo-3,4-dihydro-2H-benzo[1,4]oxazin-6-yl)-amide]"
99.5%,60 nM,27 nM,,,"Cc1cccc(N2CCC(C(=O)Nc3ccc4c(c3)NC(=O)CO4)CC2)c1C [Example 145, 1-(2,3-Dimethyl-phenyl)-piperidine-4-carboxylic acid (3-oxo-3,4-dihydro-2H-benzo[1,4]oxazin-6-yl)-amide]"
88.7%,190 nM,34 nM,,,"O=C1COc2ccc(NC(=O)C3CCN(c4cccc(Cl)c4)CC3)cc2N1 [Example 148, 1-(3-Chloro-phenyl)-piperidine-4-carboxylic acid (3-oxo-3,4-dihydro-2H-benzo[1,4]oxazin-6-yl)-amide]"
77%,380 nM,314 nM,,,"Cc1ccc(N2CCC(C(=O)Nc3ccc4c(c3)NC(=O)CO4)CC2)cc1C [Example 144, 1-(3,4-Dimethyl-phenyl)-piperidine-4-carboxylic acid (3-oxo-3,4-dihydro-2H-benzo[1,4]oxazin-6-yl)-amide]"
91.7%,160 nM,71 nM,,,"O=C1COc2ccc(NC(=O)C3CCN(c4ccccc4Br)CC3)cc2N1 [Example 153, 1-(2-Bromo-phenyl)-piperidine-4-carboxylic acid (3-oxo-3,4-dihydro-2H-benzo[1,4]oxazin-6-yl)-amide]"
96%,370 nM,137 nM,,,"O=C1COc2ccc(NC(=O)C3CCN(c4cc(F)cc(F)c4)CC3)cc2N1 [Example 154, 1-(3,5-Difluoro-phenyl)-piperidine-4-carboxylic acid (3-oxo-3,4-dihydro-2H-benzo[1,4]oxazin-6-yl)-amide]"
90%,520 nM,84 nM,,,"O=C1COc2ccc(NC(=O)C3CCN(c4cccc(F)c4)CC3)cc2N1 [Example 147, 1-(3-Fluoro-phenyl)-piperidine-4-carboxylic acid (3-oxo-3,4-dihydro-2H-benzo[1,4]oxazin-6-yl)-amide]"
94.5%,210 nM,65 nM,,,"O=C1COc2ccc(NC(=O)C3CCN(c4cccc(C(F)(F)F)c4)CC3)cc2N1 [Example 34, 1-(3-Trifluoromethyl-phenyl)-piperidine-4-carboxylic acid (3-oxo-3,4-dihydro-2H-benzo[1,4]oxazin-6-yl)-amide]"
62.3%,670 nM,1470 nM,,,"O=C1COc2ccc(NC(=O)C3CCN(c4ccccc4F)CC3)cc2N1 [Example 151, 1-(2-Fluoro-phenyl)-piperidine-4-carboxylic acid (3-oxo-3,4-dihydro-2H-benzo[1,4]oxazin-6-yl)-amide]"
89%,850 nM,56 nM,,,"O=C1COc2ccc(NC(=O)C3CCN(c4ccc(F)c(F)c4)CC3)cc2N1 [Example 155, 1-(3,4-Difluoro-phenyl)-piperidine-4-carboxylic acid (3-oxo-3,4-dihydro-2H-benzo[1,4]oxazin-6-yl)-amide]"
84%,490 nM,225 nM,,,"Cc1cccc(N2CCC(C(=O)Nc3ccc4c(c3)NC(=O)CO4)CC2)c1 [Example 140, 1-m-Tolyl-piperidine-4-carboxylic acid (3-oxo-3,4-dihydro-2H-benzo[1,4]oxazin-6-yl)-amide]"

# From patent US20060116368A1, “4-Piperidinecarboxamide modulators of vanilloid VR1 receptor” (priority 2004, published 2006)
